Experiment [1] deals with Aedes aegypti PRS Puerto Rican strain (synthetic pyrethroid resistant) L3 larvae. The experiment in a line: Mosquito larval dose response assay, PRS strain. The following applies: read-out: Lethal Concentration (LC50) PRS Strain.
Experiment [2] deals with Aedes aegypti Liverpool strain (insecticide susceptible, LVP) L3 larvae. The experiment is described as follows: Mosquito larval dose response assay, LVP strain. The following applies: read-out: Lethal Concentration (LC50) LVP Strain.
Experiment [3] relates to Rhyzopertha dominica strain QRD1440 (resistant to OP protectants and pyrethroids). The experiment is described as follows: Grain protectant bioassay on treated wheat, resistant lesser grain borer. Conditions: Example 5, QRD1440, 1 ppm on wheat, replicates A, B, C.
Experiment [4] has as its system M. persicae (green peach aphid) insecticide-susceptible population. The experiment in a line: Leaf dip bioassay, green peach aphid, susceptible population. Format: in vivo, Myzus persicae. The protocol: (§1) Each colony was maintained separately on bok choi plants ([…]) within an exclusion cage in a constant temperature room at 24° C. with a photoperiod of 16:8 LD.
(§2) Laboratory bioassays were used to determine the efficacy of flavesone against M. persicae following the leaf dip method described in Moores et al. (1994, Pesticide Biochemistry and Physiology, 49, 114-120). A pilot study was first conducted which confirmed that the leaf dip method was appropriate to elicit a clear dose response for Flavocide 500EW against M. persicae, and to determine the appropriate rate range and timing of mortality assessments (scored at 24, 48, 72 & 96 hours) (data not shown).
(§3) Bioassays were then conducted to assess the efficacy of flavesone against a susceptible and resistant population of M. persicae, and to calculate LC values. The efficacy of a conventional insecticide, pirimicarb, was tested for comparison. Nine concentrations of flavesone ranging from 1×10^−3 to 10 times the proposed field rate (Table 15), and six concentrations of pirimicarb were serially diluted and tested, along with a water control, against the susceptible and resistant aphid populations. Leaf discs (25 mm diameter) cut from bok choi leaves were submerged for 1 second in the insecticide solutions, or in the water control, and placed adaxial side up on 10 g/L agar in 35 mm petri dishes. Six replicate leaf discs were prepared per treatment. Once leaves were air-dry, eight M. persicae nymphs were transferred to each insecticide-dipped leaf disc using a fine-haired paintbrush.
(§4) After aphid introduction, each petri dish was inverted onto a lid containing a 25 mm diameter filter paper to control humidity. All petri dishes were then placed into an incubator held at 18° C.±2° C. with a photoperiod of 16:8 LD cycle. At 48 & 96 hours, aphids were scored as alive (vibrant and moving freely), dead (not moving over a 5 second period), or incapacitated (inhibited movement).
(§5) Dose-response curves were generated by plotting percentage mortality against log concentration. Mortality data was analysed using a logistic regression model with random effects. Logistic regression is suited for the analysis of binary response data (i.e. dead/alive) with the random effect component of the model controlling for the non-independence of mortality scores within replicates. […] Population differences were tested by comparing the change in model deviance with and without the population factor (different regression intercepts for each population). Differences in regression slopes between populations were tested by comparing the change in model deviance with and without the population×dose interaction term.

In experiment [5] the test system is M. persicae (green peach aphid) population resistant to carbamates and synthetic pyrethroids. The experiment in a line: Leaf dip bioassay, green peach aphid, resistant population. Format: in vivo, Myzus persicae. Conditions: Resistant population; 0.025-2500.0 mg a.i./L; 48 and 96 hours. The protocol:
as §1, §2, §3, §4, §5

Where [6] appears, read: Susceptible population, 96 hours exposure.

Converted amounts (≈) assume the structure as drawn. “And” between values parts separate entries of the source, which are not always exact repeats. Equal entries are not always repeated. Where two headings read alike, the source gives them in different places.

Turning to `CC1(C)[C@H](C(=O)O[C@H](C#N)c2cccc(Oc3ccccc3)c2)[C@@H]1C=C(Br)Br` [Deltamethrin, deltamethrin, reference compound], the LC50 in experiment [1] (24 h) turned out to be 0.0522 µg/mL (≈ 0.103 µM); in experiment [1] (48 h) it was 0.0501 µg/mL (≈ 0.0992 µM); in experiment [1] (72 h), 0.0412 µg/mL (≈ 0.0816 µM); in experiment [2] (24 h), 0.0119 µg/mL (≈ 0.0236 µM); in experiment [2] (48 h) it was 0.0049 µg/mL (≈ 0.0097 µM); in experiment [2] (72 h), 0.0037 µg/mL (≈ 0.00732 µM). The “F1 Progeny count No. dead/total” value in experiment [3] (further 6 weeks) is 0/142 and 0/79 and 2/292. In addition, the “14 Day adult mortality No. dead (total)” value in experiment [3] is 1/50 (2×) and 0/50.

Consider `CCOC(=O)CC(SP(=S)(OC)OC)C(=O)OCC` (stereo not drawn) [Malathion, malathion], for which the LC50 was found to be 0.291 µg/mL (≈ 0.88 µM) in experiment [1] (24 h); 0.177 µg/mL (≈ 0.535 µM) in experiment [1] (48 h); 0.127 µg/mL (≈ 0.384 µM) in experiment [1] (72 h); 0.11 µg/mL (≈ 0.334 µM) in experiment [2] (24 h); 0.0389 µg/mL (≈ 0.118 µM) in experiment [2] (48 h); 0.0298 µg/mL (≈ 0.0901 µM) in experiment [2] (72 h).

For `CC1(C)C(C=C(Cl)Cl)C1C(=O)OCc1cccc(Oc2ccccc2)c1` (stereo not drawn) [Permethrin, permethrin], the LC50 is 0.164 µg/mL (≈ 0.42 µM) in experiment [1] (24 h); 0.15 µg/mL (≈ 0.385 µM) in experiment [1] (48 h); 0.128 µg/mL (≈ 0.327 µM) in experiment [1] (72 h); 0.0219 µg/mL (≈ 0.056 µM) in experiment [2] (24 h); 0.0162 µg/mL (≈ 0.0414 µM) in experiment [2] (48 h); 0.0166 µg/mL (≈ 0.0424 µM) in experiment [2] (72 h).

Consider `Cc1nc(N(C)C)nc(OC(=O)N(C)C)c1C` [Pirimicarb, pirimicarb, reference compound], for which the LC50 in experiment [4] (Myzus persicae, foliar, 96 h, read-out: LC50 (mg a.i./L)) was found to be 18.5 µg/mL (≈ 77.6 µM). In addition, in experiment [4] (setting [6]), the “LC90 (mg a.i./L)” value came to 78.9 mg a.i./L and the “LC99 (mg a.i./L)” value came to 384 mg a.i./L. Further, in experiment [5], the mortality observed entry is “Very low mortality”.

The record behind these values is patent US11259522B2, “Control of resistant pests” (priority 2017, dated 2022).
